Literature values in PMC9145865, “Effects of Rare Phytocannabinoids on the Endocannabinoid System of Human Keratinocytes” (International Journal of Molecular Sciences, 2022).

System: transformed human keratinocytes
Parameters: method as in PMID 17157480
Conditions: hyperproliferative conditions; ref [46]; cited from earlier work

| SMILES | proliferation of transformed human keratinocytes |
| --- | --- |
| CCCCCc1cc(O)c2c(c1)OC(C)(C)[C@@H]1CCC(C)=C[C@@H]21 [Δ^9-THC, Δ^9-tetrahydrocannabinol] | inhibit the proliferation |
| C=C(C)[C@@H]1CCC(C)=C[C@H]1c1c(O)cc(CCCCC)cc1O [CBD, cannabidiol] | inhibit the proliferation |
